# Laboratory results as given in patent US20250032557A1, “Novel Strain Having Antagonism Against Proteus Mirabilis and Excellent Effect on Neurodegenerative Disease, and use Thereof” (METACEN THERAPEUTICS CO., LTD, priority 2021, published 2025).
# Assay: Protective ability against MPP^+ induced apoptosis of neurons (WST-1 cell viability)
# Assay type: cell-based
# Details: human, MPP^+ 1 mM alone, read-out: Cell viability % compared to control
# Protocol: The following experiment was performed to evaluate the protective ability against apoptosis of neurons caused by MPP^+, a Parkinson's disease-inducing toxicity, in differentiated SH-Sy5y cells (brain neurons) for the Weissella cibaria strains shown in Table 2 above.
# Thereafter, the existing medium was removed and replaced with 0.5% fetal bovine serum DMEM medium to which a sample was added at various concentrations. After 4 hours, the cells were treated with MPP^+ neurotoxicity at a concentration of 1 mM and cultured for an additional 44 hours. Thereafter, the medium was treated with the WST-1 solution and cultured for 2 hours to induce a reduction reaction, and then the absorbance was measured at 450 nm using an ELISA microplate reader.
smiles,measurement,value
"C[n+]1ccc(-c2ccccc2)cc1 [MPP^+, 1-methyl-4-phenylpyridinium iodide]","viability at 44 h, 1 mM",53%
